From PubChem BioAssay AID1996
In brackets after ≈: the same amount, converted by molar mass.

Settings: buffer; pH 7.4; 200.0 µM

First: CC(Oc1ccc(C#N)cc1)C(=O)c1ccc(F)c(F)c1 (configuration not stated)
Second: O=C(Nc1ccc2ccccc2n1)Nc1ccccc1F
The solubility kinetic of the first is higher: 0.0326 mg/mL (≈ 113 µM) for the first, under 0.0002 mg/mL for the second.

`O=C(O)c1nccnc1C(=O)Nc1ccccc1N1CCOCC1` and `Cc1ccccc1C(=O)Nc1ccc(S(=O)(=O)N2CCOCC2)cc1` cannot be ordered by solubility kinetic: over 0.0492 mg/mL for the first, over 0.0541 mg/mL for the second.

First: O=C(CSc1ccccc1C(=O)O)Nc1ccc2c(c1)OCO2
Second: CC1CCN(C(=O)CNC(=O)Cc2ccccc2)CC1
The solubility kinetic of the first is higher: over 0.0497 mg/mL for the first, 0.0409 mg/mL (≈ 149 µM) for the second.

`CCCNC(=O)CSc1nccn1Cc1ccc(OC)cc1` and `COc1ccc(CNC(=O)COC(=O)CN2C(=O)C3CC=CCC3C2=O)cc1` (configuration not stated) cannot be ordered by solubility kinetic: over 0.0479 mg/mL for the first, over 0.058 mg/mL for the second.

`NC(=O)Nc1ccc(Cl)cc1` and `CN1CCN(c2ccc(NC(=O)c3ccco3)cc2Cl)CC1` cannot be ordered by solubility kinetic: over 0.0256 mg/mL for the first, 0.0453 mg/mL (≈ 142 µM) for the second.

`COc1ccccc1CC(=O)NC1CCCCCC1` and `COc1ccccc1OCCNC(=O)C1CCCCC1` are within 1.5-fold of each other in solubility kinetic: 0.0376 mg/mL (≈ 144 µM) for the first, 0.0338 mg/mL (≈ 122 µM) for the second.

Compared with `O=C(NC1CCCCCC1)c1cc2ccccc2oc1=O`, `Cc1cc(C(=O)NC2CCCCCC2)c2ccccc2n1` is 7.1-fold higher in solubility kinetic: 0.0034 mg/mL (≈ 11.9 µM) for the first, 0.0242 mg/mL (≈ 85.7 µM) for the second.

`CCOC(=O)C1(CCOC)CCN(C(=O)c2sccc2C)CC1` and `CCOC(=O)CCNC(=O)N1CCCC(CNS(=O)(=O)c2cccs2)C1` (configuration not stated) cannot be ordered by solubility kinetic: over 0.0509 mg/mL for the first, over 0.0605 mg/mL for the second.

First: Cc1ccc(-n2cnc(N)c2C(=O)c2cccc([N+](=O)[O-])c2)cc1
Second: COc1cccc(/C(N)=N/OC(=O)Cc2ccccc2[N+](=O)[O-])c1
The solubility kinetic of the first is 1.9-fold lower: 0.0166 mg/mL (≈ 51.5 µM) for the first, 0.0317 mg/mL (≈ 96.3 µM) for the second.

Going from `Cc1cc(C)c(S(=O)(=O)c2ccc(C(C)(C)C)cc2)c(Cl)n1` to `COc1cccc(S(=O)(=O)c2nc(C)c3c(n2)CCC3)c1`, the solubility kinetic rises from under 0.0007 mg/mL to over 0.0457 mg/mL.

`O=c1cc(C(F)(F)F)[nH]c(=S)n1-c1ccccc1` and `CSc1nc(=S)n(-c2ccccc2)c(C)c1C(C)=O` cannot be ordered by solubility kinetic: over 0.0408 mg/mL for the first, 0.0417 mg/mL (≈ 144 µM) for the second.

First: CCN(CC(=O)Nc1cc(Cl)ccc1C)C(=O)C1CC1
Second: Cc1cccc(C)c1OCc1cc(C(=O)NC2CCC(O)CC2)no1 (configuration not stated)
The solubility kinetic of the first is higher: over 0.0442 mg/mL for the first, 0.0194 mg/mL (≈ 56.3 µM) for the second.

`N#Cc1ccsc1NC(=O)CCN1C(=O)C2CCCCC2C1=O` (configuration not stated) and `O=C1c2ccccc2CN1CCNC(=S)NC1CCCCC1` cannot be ordered by solubility kinetic: over 0.0497 mg/mL for the first, over 0.0476 mg/mL for the second.

`O=C(O)CN1C(=O)NC2(CCc3ccccc32)C1=O` (configuration not stated) and `O=C(CN1C(=O)NC2(CCCCCC2)C1=O)NCc1ccc(F)cc1` cannot be ordered by solubility kinetic: over 0.039 mg/mL for the first, over 0.0521 mg/mL for the second.

Going from `Cc1ccc(S(=O)(=O)N2CCOCC2)cc1NC(=O)CN1C(=O)NC(C)(c2ccc(Cl)cc2Cl)C1=O` (configuration not stated) to `COc1ccc(S(=O)(=O)N2CCOCC2)cc1NC(=O)COc1ccc2c(C)cc(=O)oc2c1`, the solubility kinetic falls from 0.0461 mg/mL (≈ 83 µM) to 0.0041 mg/mL (≈ 8.39 µM) (11-fold).

`Cc1ccn2cc(CCNC(=O)COc3ccccc3)nc2c1` and `COc1cccc(OCCCn2ccnc2)c1.Cl` are within 1.5-fold of each other in solubility kinetic: 0.0406 mg/mL (≈ 131 µM) for the first, 0.0331 mg/mL for the second.

`CN(C)CC(C)(C)CNCc1cc(=O)oc2ccc3ccccc3c12` and `CC1CN(Cc2cc(=O)oc3cc(O)ccc23)CC(C)O1` (configuration not stated) cannot be ordered by solubility kinetic: over 0.0508 mg/mL for the first, over 0.0434 mg/mL for the second.

First: Cc1ccc(C(=O)COC(=O)c2cnccn2)cc1C
Second: CCCN1C(=O)c2ccc(C(=O)Nc3cc(C)ccc3O)cc2C1=O
The solubility kinetic of the first is 43-fold higher: 0.0387 mg/mL (≈ 143 µM) for the first, 0.0009 mg/mL (≈ 2.66 µM) for the second.

`CCOC(=O)N1CCc2c(sc3ncn(Cc4ccc(F)cc4)c(=O)c23)C1` and `NS(=O)(=O)c1ccc(CCNC(=O)COC(=O)/C=C/c2cc(Br)ccc2F)cc1` are within 1.5-fold of each other in solubility kinetic: 0.0208 mg/mL (≈ 53.7 µM) for the first, 0.0302 mg/mL (≈ 62.2 µM) for the second.

Compared with `COc1ccc(NC(=O)CCC(=O)N2CCOCC2)c([N+](=O)[O-])c1`, `COc1ccccc1NC(=O)NC1(C(=O)N2CCCCC2)CCCCC1` is lower in solubility kinetic: over 0.0506 mg/mL for the first, 0.01 mg/mL (≈ 27.8 µM) for the second.

`CC(C)COc1ccc(C(=S)N2CCCC2)cc1` and `Brc1cccc(CN2CCN(c3ncccn3)CC2)c1` are within 1.5-fold of each other in solubility kinetic: 0.0212 mg/mL (≈ 80.5 µM) for the first, 0.0252 mg/mL (≈ 75.6 µM) for the second.

Compared with `COc1ccc2c(c1O)C13CCN(C)C(C2)C1CCC(=O)C3` (configuration not stated), `COc1ccccc1/C=C1\C(=O)Nc2ccccc21` is lower in solubility kinetic: over 0.0452 mg/mL for the first, 0.002 mg/mL (≈ 7.96 µM) for the second.

`c1ccc2c(c1)COC(CNC1CCCCC1)OC2` and `CCOCCCNc1ncnc2c1nc1n2CCCC1` cannot be ordered by solubility kinetic: over 0.0392 mg/mL for the first, over 0.0413 mg/mL for the second.

In the case of `CC(=O)NC1=NN(C(C)=O)C(c2ccco2)S1` (configuration not stated), the solubility kinetic is reported as over 0.038 mg/mL.
